Series [1] concerns increased intra ocular pressure model (retina of SD rats). Description: Pharmacological effect on an increased intra ocular pressure model (retinal layer thickness). In kind it is in vivo, rat. The following applies: for thickness of outer nuclear layer (ONL), Average / thickness of inner nuclear layer (INL), Average / thickness of inner plexus layer (IPL), Average: 5 μl of 0.1 mg/ml to the vitreous body; for cell death of inner granular cells due to increased intra ocular pressure (in words): overall conclusion of the example; for decrease of the thickness of the inner granular cell layer (INL) due to increased intra ocular pressure (in words) / decrease of the thickness of the inner plexus layer (IPL) due to increased intra ocular pressure (in words): compared to IOP increase load + PBS group, Student's t-test; for influence of administration on the outer nuclear layer (in words): rats with IOP increase load, pre- or post-administration to the vitreous body. An excerpt:
The retinal nerve consists of the extraretinal granular layer, granule cells in the retina and the gangliocyte layer, and granule cells in the retina and the gangliocyte layer receive blood supply from the central retinal artery. When pressure is imposed on the anterior chamber, a load is imposed on the cribrosa lamina which is not covered with the sclera and the central retinal artery which extends through this area is occluded, and as a result, granule cells in the retina and the gangliocyte layer becomes ischemic, and cell death occurs.
The damage of granule cells in the retina can be readily evaluated as “the thickness of the inner nuclear layer (INL)” representing the change in number of the cells. Since the inner plexus layer, synapses between each neurons, is also damaged by the increase in the intra ocular pressure and made thinner, the thickness of the inner plexus layer (IPL) becomes an indicator to show the degree of damage. Therapeutic or preventive agents for retinal neuropathy having a suppressive effect have been explored using these two parameters as indices.
20 SD rats (6-week old) were used and divided into the following groups. • Sham operation (sometimes abbreviated as Sham ope hereinbelow): Five rats (Of these, 4 rats were used for analysis) • IOP (Intra Ocular pressure) treatment+PBS (5 μl was administered to the vitreous body): Five rats (Of these, 4 rats were used for analysis) • IOP (Intra Ocular pressure) treatment+test compound (5 μl was pre-administered to the vitreous body): Five rats (Of these, 4 rats were used for analysis) • IOP (Intra Ocular pressure) treatment+test compound (5 μl was post-administered to the vitreous body): Five rats (Of these, 4 rats were used for analysis) • (2) Increase in Intra Ocular Pressure
By the following steps, increased intra ocular pressure model animals were prepared and a drug (test compound) was administered thereto.
(i) A rat was set to a brain stereotaxic apparatus under anesthesia with […].
(ii) The head of the rat was fixed and an eyeball was pricked with a 26-G needle attached to the tip of a tube, which was connected to a sphygmomanometry device, into the rat anterior chamber and a load was imposed so that the inner pressure of the anterior chamber was 140 to 160 mmHg.
(iii) As for the timing of the administration of a drug into the vitreous body, the drug was administered 15 minutes before the intra ocular pressure increasing load for pre-administration, while the drug was administered 15 minutes after the intra ocular pressure increasing load for post-administration.
(iv) Increase in intra ocular pressure was maintained for one hour, and the rat was relieved from the brain anchor after the intra ocular pressure loading and ordinarily bred for one week.
(v) After sacrificed by suffocation with carbon dioxide, eyeballs were removed.
(vi) A paraffin section of the retina was prepared and dyed with 0.5% cresyl violet.
(vii) A histological image at a position 880 μm from the optic papilla (upper part of the retina) was photographed and the thicknesses of the outer nuclear layer (ONL), inner nuclear layer (INL) and inner plexus layer (IPL) were measured. • (3) Preparation of a Drug and Administration Method
SPF-3059-1 as a test substance was dissolved in PBS to a concentration of 1 mg/ml and further diluted with PBS to 0.1 mg/ml immediately before use. 5 μl of the diluted solution was administered to the vitreous body of the left eye of a rat with a 30G double needle. • (4) Significance Test
Intra ocular pressure was increased by the method of above (2) and significance tests were conducted by Student's t-test and Welch & F-test on the retinal protection effect of SPF-3059-1 administration in rats to which PBS was administered to the vitreous body.
Each of the thickness of outer nuclear layer, inner nuclear layer and inner plexus layer was measured using the retina of the rats in each treatment group, and a cytoprotective effect was evaluated. […]

Series [2] has the same test system. The series is described as above. The following applies: Example 2, 7-week old SD rats, 5 μl of 0.1 mg/ml to the vitreous body. In kind it is in vivo, rat.
Series [3] can be described thus: Solubility (physico-chemical properties of the prepared compound). Format: physicochemical. An excerpt: Each compound of the present invention is a known compound and is disclosed by WO02/09756 or WO03/062243 and can be produced from SPF-3059 strain which is a fungus belonging to the genus Penicillium. Production process and physico-chemical properties are described in the above international publication pamphlets. Specifically, the following compounds were respectively prepared. • (Compound SPF-3059-1) • Appearance: Yellow powder • High resolution fast atom bombardment mass spectrum • (HRFAB-MS) m/z (M+H)^+: • Observed value: 579.0772 • Calculated value: 579.0776 • Molecular formula: C28H18O14 • Ultraviolet visible absorption spectrum λ max (in methanol) nm(ε): […]

Another series deals with cultured nerve cells. The following applies: in a short period of time; as low as; cited from earlier work.
[4] abbreviates: Example 1, 6-week old SD rats, IOP increase load + test substance post-administration, one week after load.
[5] abbreviates: Example 1, 6-week old SD rats, IOP increase load + test substance pre-administration, one week after load.
Setting [6] is: IOP increase load + test substance pre-administration.
[7] abbreviates: Example 2, 7-week old SD rats, IOP increase load + test substance post-administration.

Entries after “also recorded” stand apart in the source; their conditions may differ.

Turning to `CC(=O)c1c(C)c(C(=O)C2COc3cc(O)c(O)c(C(=O)O)c3C2=O)cc2c(=O)c3c(C(=O)O)c(O)c(O)cc3oc12` (centres unmarked) [SPF-3059-1], the “thickness of outer nuclear layer (ONL), Average” value (from here on “thickness of outer nuclear layer”) in series [1] (Example 1, 6-week old SD rats, IOP increase load + test substance post-administration (15 minutes after load), one week after load) is on record as 45.56 μm. Moreover, in series [1] (setting [4]), the “thickness of inner nuclear layer (INL), Average” value (shortened to “thickness of inner nuclear layer”) worked out at 27.89 μm and the “thickness of inner plexus layer (IPL), Average” value (“thickness of inner plexus layer” below) is 40.45 μm. Besides, the “thickness of outer nuclear layer” value in series [1] (Example 1, 6-week old SD rats, IOP increase load + test substance pre-administration (15 minutes before load), one week after load) was found to be 45.79 μm. Besides, in series [1] (setting [5]), the “thickness of inner nuclear layer” value came out at 29.56 μm and the “thickness of inner plexus layer” value came to 46.89 μm. For the same molecule, in series [1], the “cell death of inner granular cells due to increased intra ocular pressure (in words)” value was “suppressed” and the “influence of administration on the outer nuclear layer (in words)” value is listed as “does not have an influence”. Further, in series [1] (post-administration), the “decrease of the thickness of the inner granular cell layer (INL) due to increased intra ocular pressure (in words)” value is given as “tends to be suppressed; also recorded: suppressing tendency” and the “decrease of the thickness of the inner plexus layer (IPL) due to increased intra ocular pressure (in words)” value was “tends to be suppressed; also recorded: suppressing tendency”. Moreover, in series [1] (pre-administration), the “decrease of the thickness of the inner granular cell layer (INL) due to increased intra ocular pressure (in words)” value is on record as “suppressed significantly; also recorded: suppressing effect” and the “decrease of the thickness of the inner plexus layer (IPL) due to increased intra ocular pressure (in words)” value is given as “suppressed significantly; also recorded: suppressing effect”.
`CC(=O)c1cc2c(=O)c3c(C(=O)O)c(O)c(O)cc3oc2c(C(C)=O)c1-c1coc2cc(O)c(O)c(C(=O)O)c2c1=O` [SPF-3059-5]: the “thickness of outer nuclear layer” value in series [2] (IOP increase load + test substance post-administration) is listed as 61.76 μm. Moreover, in series [2] (setting [6]), the “thickness of inner nuclear layer” value came to 33.09 μm; the “thickness of inner plexus layer” value was found to be 55.88 μm; the “thickness of outer nuclear layer” value turned out to be 60.29 μm. Besides, in series [1] (setting [7]), the “thickness of inner nuclear layer” value stood at 36.76 μm and the “thickness of inner plexus layer” value worked out at 55.15 μm. In addition, in series [1], the “cell death of inner granular cells due to increased intra ocular pressure (in words)” value was “suppressed” and the “influence of administration on the outer nuclear layer (in words)” value is “does not have an influence”. In series [1] (post-administration), the “decrease of the thickness of the inner granular cell layer (INL) due to increased intra ocular pressure (in words)” value is listed as “shown statistically significantly” and the “decrease of the thickness of the inner plexus layer (IPL) due to increased intra ocular pressure (in words)” value is given as “suppressed significantly”. In addition, in series [1] (pre-administration), the “decrease of the thickness of the inner granular cell layer (INL) due to increased intra ocular pressure (in words)” value was “tends to be suppressed; also recorded: suppressing tendency” and the “decrease of the thickness of the inner plexus layer (IPL) due to increased intra ocular pressure (in words)” value was “suppressed significantly; also recorded: suppressing effect”.
Regarding `CC(=O)c1cc2c(=O)c3c(C(=O)O)c(O)c(O)cc3oc2c(C(C)=O)c1-c1coc2cc(O)c(O)cc2c1=O` [SPF-3059-24], the Solubility result in series [3] (in DMSO) was “soluble”; in series [3] (in hexane), “Insoluble”; in series [3] (in methanol), “soluble”; in series [3] (in water), “Insoluble”.

B1: semaphorin 3A: endogenous protein which collapses the nerve growth cone and suppresses axon elongation (protein, UniProt Q14563 21-771, looked up)
Semaphorin-3A: NYQNGKNNVPRLKLSYKEMLESNNVITFNGLANSSSYHTFLLDEERSRLYVGAKDHIFSFDLVNIKDFQKIVWPVSYTRRDECKWAGKDILKECANFIKVLKAYNQTHLYACGTGAFHPICTYIEIGHHPEDNIFKLENSHFENGRGKSPYDPKLLTASLLIDGELYSGTAADFMGRDFAIFRTLGHHHPIRTEQHDSRWLNDPKFISAHLISESDNPEDDKVYFFFRENAIDGEHSGKATHARIGQICKNDFGGHRSLVNKWTTFLKARLICSVPGPNGIDTHFDELQDVFLMNFKDPKNPVVYGVFTTSSNIFKGSAVCMYSMSDVRRVFLGPYAHRDGPNYQWVPYQGRVPYPRPGTCPSKTFGGFDSTKDLPDDVITFARSHPAMYNPVFPMNNRPIVIKTDVNYQFTQIVVDRVDAEDGQYDVMFIGTDVGTVLKVVSIPKETWYDLEEVLLEEMTVFREPTAISAMELSTKQQQLYIGSTAGVAQLPLHRCDIYGKACAECCLARDPYCAWDGSACSRYFPTAKRRTRRQDIRNGDPLTHCSDLHHDNHHGHSPEERIIYGVENSSTFLECSPKSQRALVYWQFQRRNEERKEEIRVDDHIIRTDQGLLLRSLQQKDSGNYLCHAVEHGFIQTLLKVTLEVIDTEHLEELLHKDDDGDGSKTKEMSNSMTPSQKVWYRDFMQLINHPNLNTMDEFCEQVWKRDRKQRRQRPGHTPGNSNKWKHLQENKKGRNRRTHEFERAPRSV
B1: in the series with cultured nerve cells, the “concentration inducing growth cone collapse of the cultured nerve cells” value is given as 10 pM.

The values above are taken from patent US20110105599A1, “THERAPEUTIC OR PREVENTIVE AGENTS FOR ISCHEMIC NEUROPATHY” (Dainippon Sumitomo Pharma Co., Ltd., priority 2003, published 2011).
